# From patent publication US20240092756A1, “METHODS AND COMPOSITION FOR KRAS MODIFICATIONS” (2692372 ONTARIO, INC., priority 2020, published 2024)
# Columns and labels:
# [1] = target: KRAS G12C Lite (SEQ ID NO:3) (Homo sapiens, UniProt P01116, C118S/C51S/C80S/G12C/S136P/S39C); test: Intact mass analysis (LC-MS) of covalent modification, KRAS G12C Lite; format: binding; design: key to KRAS Lite Modification: a: KRAS Lite modified; conditions: intact mass spectrometry; covalent modification of KRAS G12C Lite
# Experimental: The covalent modification of the proteins with the compounds were evaluated using intact mass analysis by liquid chromatography-mass spectrometry instrument (LC-MS/MS).
# The reaction solution (20 μL) was prepared in 96-well plate and contained the protein (2 μM), the compound (100 μM), HEPES buffer (20 mM, pH 8), 2% DMSO, 2% glycerol, and 150 mM NaCl. The reaction was allowed to proceed for 24 h at 25° C. The reaction solution (1 μL) was injected into the LC/MS/MS without any further sample preparation.
# The LC-MS/MS instrument comprises of a Waters G2-XS quadrupole-time of flight (QTof) mass spectrometer and a Waters Acuity I-class Ultra-High Performance Liquid Chromatography (UPLC) system. The I-class UPLC system includes a binary solvent manager (BSM), and an Acquity sample manager (SM). The mobile phase consisted of: A) 0.1% (v/v) formic acid in MilliQ water; B) 0.1% (v/v) formic acid acetonitrile. Gradients were run over 5 min and proceeded as follows: A:B, 85:15, 0.0-0.7 min, 85:15→15:85, 0.7-1.5 min, 10:90, 1.5-4 min, 10:90→85:15, 4-4.5 min, 85:15, 4.5-5 min. The analytical column was a Waters BEH C4 column 1.7 μm (50×1 mm) column with pore sizes of 300 Å. The TOF MS data was collected in positive ion mode (m/z of 400-2000 Da) using MassLynx software (Waters).
# The spectral deconvolution was performed using UNIFI software (Waters). The added mass of the protein upon covalent modification to cysteine residues were specified. Multiple modification of up to 8 cysteine was allowed. All the adducts with signal intensities of <2% of the base peak were ignored. The % modification was calculated as the adduct signal intensity over the total intensities of the protein peaks and the adducts.
# [2] = tested on: phospho-ERK1/2 in MIA PaCa-2 cells (express KRAS G12C); test: ERK1/2 phosphorylation in MIA PaCa-2 cells; format: cell-based, human; design: key: X: KRAS G12C bound and modulated in cells
# Experimental: MIA PaCa-2 cells were cultured in Dulbecco's Modified Eagle's Medium (Wisent) supplemented with 10% FBS, 2.5% horse serum, and 1% penicillin/streptomycin. Cells were seeded in 6-well plates at 500,000 cells/well and incubated at 37° C., 5% CO2 for 16 hours. Cells were treated with the indicated concentrations of compound or DMSO alone and incubated at 37° C., 5% CO2 for 6 or 24 hours. Conditioned media was discarded, and adherent cells were washed with PBS before they were scraped. Cell suspensions were centrifugated at 2,000 RPM for 5 minutes at 4° C. and supernatants were discarded. Cell pellets were resuspended with 1×RIPA buffer (Millipore) and incubated on ice for 15 minutes. Protein lysates were extracted by centrifugating at 20,000 RPM for 20 minutes at 4° C. Proteins were separated and total KRas protein levels were quantified by Simple Western Immunoassay (ProteinSimple) using the 2-40 kDa Separation Module for Jess according to the manufacturer's protocol, using a protein concentration of 0.5 μg/μl and antibodies targeting KRas (clone #4F3, Sigma) and GAPDH (clone #14C10, Cell Signaling) diluted to 1:10 and 1:1600, respectively, where the latter was used as a loading control. A 3:1 ratio of rabbit to mouse HRP-conjugated secondary antibodies was used for detection. KRas protein levels were quantified relative to GAPDH loading levels and subsequently normalized to the DMSO control. Phosphorylated ERK1/2 levels were quantified by Simple Western Immunoassay (ProteinSimple) using the Protein Normalization Assay Module for Jess according to the manufacturer's protocol using a protein concentration of 0.5 μg/μl and an antibody targeting phosphor-ERK1/2 (clone #D13.14.4E, Cell Signalling) diluted to 1:10. Phosphorylated ERK1/2 levels were normalized to the Jess Protein Normalization Reagent loading control and subsequently to the DMSO control.
# MIA PaCa-2 cells were cultured in Dulbecco's Modified Eagle's Medium (Wisent) supplemented with 10% FBS, 2.5% horse serum, and 1% penicillin/streptomycin. Cells were seeded in 96-well plates at a density of 25,000 cells/well and incubated at 37° C., 5% CO2 for 24 hours. The next day, cells were starved in cell culture media containing 1% FBS only at 37° C., 5% CO2 for 16 hours. Following starvation, serially-diluted compounds or DMSO alone were added to cells and incubated at 37° C., 5% CO2 for 1 or 3 hours. Prior to cell lysis, 25 ng/ml human epidermal growth factor (hEGF) (Sigma) was added to the cells and incubated at 37° C., 5% CO2 for 10 minutes. Conditioned media was discarded, and adherent cells lysed and basal ERK1/2 phosphorylation levels were measured using the Phospho-ERK (Thr202/Tyr204) Cellular HTRF kit (Perkin Elmer) according to the manufacturer's protocol. The fluorescent signal of the acceptor antibody at a wavelength of 665 nm was normalized to that of the donor antibody at 620 nm. HTRF ratios were plotted and relative IC50 values were obtained using Prism (GraphPad).
# KRAS G12C = KRAS G12C (Homo sapiens, UniProt P01116, G12C); test: SOS1-catalyzed KRAS coupled nucleotide exchange assay (Alpha technology); format: biochemical; design: His; key: A: KRAS G12C bound and modulated; conditions: inhibition of SOS1 mediated KRAS nucleotide exchange
# Experimental: Method I: The inhibition of the SOS1-catalyzed nucleotide exchange activity of KRAS (e.g., KRAS G12C/C118A) was measured using Alpha (Amplified Luminescent Proximity Homogeneous Assay) technology. 20 nM GDP-bound human KRAS (G12C/C118A) protein was incubated with two-fold serially-diluted test compound or DMSO for 5 minutes at ambient temperature in reaction buffer (25 mM HEPES, pH 7.4; 10 mM MgCl2; 0.01% Triton X-100). For all subsequent steps, DTT was added to the reaction buffer at a final concentration of 1 mM. Next, GTP and SOS-1 were added in DTT-reaction buffer at final concentrations of 1.25 mM or 500 nM, respectively, and incubated at RT for 30 minutes. Finally, c-RAF RBD (50 nM final), Alpha glutathione donor beads (PerkinElmer; 20 μg/mL final), and AlphaLISAnickel chelate acceptor beads (PerkinElmer; 20 μg/mL final), all diluted in DTT-reaction buffer, were added. The reaction mixture was incubated at RT for 5 min, and then the plates were read on an EnVision® Multilabel Reader using the AlphaScreen protocol. Luminescence signal was measured at 570 nm following a 180 ms excitation at 680 nm. Signal intensity corresponded with the association of c-RAF RBD with GTP-bound KRAS G12C/C118A and was normalized to DMSO control.
# Method II: Inhibition of the SOS1-catalyzed nucleotide exchange activity of KRAS^G12C was measured using Alpha technology (PerkinElmer). 50 nM GDP-bound human KRAS^G12C protein was incubated with serially-diluted compound or DMSO for 2 hrs at RT in RBD-RAS binding buffer (BPSBioscience). 1 mM GTP and 500 nM SOS-1 were added to the reaction mixture and incubated at RT for 30 min. GST-tagged RBD-cRAF was then added to the reaction mixture at a final concentration of 2.5 nM and incubated at RT for 30 min. Finally, Alpha Glutathione acceptor beads and Nickel chelate donor beads (PerkinElmer) were diluted to 1:500 and 1:250, respectively, and added to the reaction mixture. The final reaction was incubated at RT for 30 min. Plates were read on a TECAN SPARK® Multiplate Reader. The luminescence signal was measured at 615 nm following excitation at 680 nm. Signal intensity was normalized to DMSO control.
Structure (SMILES),KRAS Lite Modification [1],"pERK - MIA PaCa-2 - (6 hours, 5 uM) [2]",KRAS-SOS1 Nucleotide Exchange (KRAS G12C)
"COc1c(F)c(F)c(F)c(F)c1S(=O)(=O)Nc1nc(=O)n(-c2c(C)ccnc2C(C)C)c2nc(-c3c(O)cccc3F)c(F)cc12 (atropisomer, axis not shown) [Compound 9A, 2,3,4,5-tetrafluoro-N-(6-fluoro-7-(2-fluoro-6-hydroxyphenyl)-1-(2-isopropyl-4-methylpyridin-3-yl)-2-oxo-1,2-dihydropyrido[2,3-d]pyrimidin-4-yl)-6-methoxybenzenesulfonamide]",a,X,–
"Cc1ccnc(C(C)C)c1-n1c(=O)nc(NS(=O)(=O)c2c(F)c(F)c(F)c(F)c2OCF)c2cc(F)c(-c3c(O)cccc3F)nc21 (atropisomer, axis not shown) [Compound 10A, 2,3,4,5-tetrafluoro-N-(6-fluoro-7-(2-fluoro-6-hydroxyphenyl)-1-(2-isopropyl-4-methylpyridin-3-yl)-2-oxo-1,2-dihydropyrido[2,3-d]pyrimidin-4-yl)-6-(fluoromethoxy)benzenesulfonamide]",–,X,A
"C[S+]([O-])c1c(F)c(F)c(F)c(F)c1N1CCN(c2ncnc3c2CCN(c2cccc4cccc(Cl)c24)C3)CC1 (racemic) [Compound 43A, 7-(8-chloronaphthalen-1-yl)-4-(4-(2,3,4,5-tetrafluoro-6-(methylsulfinyl)phenyl)piperazin-1-yl)-5,6,7,8-tetrahydropyrido[3,4-d]pyrimidine]",a,–,–
"C[S+]([O-])c1c(F)c(F)c(F)c(F)c1N1CC(Nc2ncnc3cc(-c4ccccc4F)c(Cl)cc23)C1 (racemic) [Compound 48A, 6-chloro-7-(2-fluorophenyl)-N-(1-(2,3,4,5-tetrafluoro-6-(methylsulfinyl)phenyl)azetidin-3-yl)quinazolin-4-amine]",–,X,A
"COc1c(F)c(F)c(F)c(F)c1S(=O)(=O)Nc1nc(=O)n(-c2c(C)ccnc2C(C)C)c2nc(Cl)c(F)cc12 [Compound 8A, N-(7-chloro-6-fluoro-1-(2-isopropyl-4-methylpyridin-3-yl)-2-oxo-1,2-dihydropyrido[2,3-d]pyrimidin-4-yl)-2,3,4,5-tetrafluoro-6-methoxybenzenesulfonamide]",a,–,–
"O=S(=O)(NC1CN(c2ncnc3c2CCN(c2cccc4ccccc24)C3)C1)c1c(F)c(F)c(F)c(F)c1F [Compound 20A, 2,3,4,5,6-pentafluoro-N-(1-(7-(naphthalen-1-yl)-5,6,7,8-tetrahydropyrido[3,4-d]pyrimidin-4-yl)azetidin-3-yl)benzenesulfonamide]",–,X,A
"O=S(=O)(c1c(O)c(F)c(F)c(F)c1F)N1CCN(c2ncnc3c2CCN(c2cccc4ccccc24)C3)CC1 [Compound 31A, 2,3,4,5-tetrafluoro-6-((4-(7-(naphthalen-1-yl)-5,6,7,8-tetrahydropyrido[3,4-d]pyrimidin-4-yl)piperazin-1-yl)sulfonyl)phenol]",a,–,A
"O=S(=O)(NC1CN(c2ncnc3c2CCN(c2cccc4ccccc24)C3)C1)c1c(F)c(F)c(F)c(F)c1C(F)(F)F [Compound 35A, 2,3,4,5-tetrafluoro-N-(1-(7-(naphthalen-1-yl)-5,6,7,8-tetrahydropyrido[3,4-d]pyrimidin-4-yl)azetidin-3-yl)-6-(trifluoromethyl)benzenesulfonamide]",–,X,A
"O=S(=O)(c1c(F)c(F)c(F)c(F)c1C(F)(F)F)N1CCN(c2ncnc3c2CCN(c2cc(O)cc4ccccc24)C3)CC1 [Compound 41A, 4-(4-(4-((2,3,4,5-tetrafluoro-6-(trifluoromethyl)phenyl)sulfonyl)piperazin-1-yl)-5,8-dihydropyrido[3,4-d]pyrimidin-7(6H)-yl)naphthalen-2-ol]",–,X,A
"Cc1cccc(C)c1-c1cc2nccc(N3CCN(c4c(F)c(F)c(F)c(F)c4S(C)(=O)=O)C[C@@H]3C)c2cc1Cl [Compound 44A, (S)-6-chloro-7-(2,6-dimethylphenyl)-4-(2-methyl-4-(2,3,4,5-tetrafluoro-6-(methylsulfonyl)phenyl)piperazin-1-yl)quinoline]",–,X,A
"C[C@H]1CN(Cc2c(F)c(F)c(F)c(F)c2[S+](C)[O-])CCN1c1ncnc2cc(-c3ccccc3F)c(Cl)cc12 (stereo partly drawn) [Compound 46A, 6-chloro-7-(2-fluorophenyl)-4-((2S)-2-methyl-4-(2,3,4,5-tetrafluoro-6-(methylsulfinyl)benzyl)piperazin-1-yl)quinazoline]",–,X,–
